# Measured values published in the Kinase Knowledgebase extract (Sharma et al. 2016).
# Target: ROCK2 (human) (UniProt O75116)
# Experiment: Inhibition of ROCK2 Kinase Activity
# Sequence of ROCK2 (human) (O75116 whole entry, looked up): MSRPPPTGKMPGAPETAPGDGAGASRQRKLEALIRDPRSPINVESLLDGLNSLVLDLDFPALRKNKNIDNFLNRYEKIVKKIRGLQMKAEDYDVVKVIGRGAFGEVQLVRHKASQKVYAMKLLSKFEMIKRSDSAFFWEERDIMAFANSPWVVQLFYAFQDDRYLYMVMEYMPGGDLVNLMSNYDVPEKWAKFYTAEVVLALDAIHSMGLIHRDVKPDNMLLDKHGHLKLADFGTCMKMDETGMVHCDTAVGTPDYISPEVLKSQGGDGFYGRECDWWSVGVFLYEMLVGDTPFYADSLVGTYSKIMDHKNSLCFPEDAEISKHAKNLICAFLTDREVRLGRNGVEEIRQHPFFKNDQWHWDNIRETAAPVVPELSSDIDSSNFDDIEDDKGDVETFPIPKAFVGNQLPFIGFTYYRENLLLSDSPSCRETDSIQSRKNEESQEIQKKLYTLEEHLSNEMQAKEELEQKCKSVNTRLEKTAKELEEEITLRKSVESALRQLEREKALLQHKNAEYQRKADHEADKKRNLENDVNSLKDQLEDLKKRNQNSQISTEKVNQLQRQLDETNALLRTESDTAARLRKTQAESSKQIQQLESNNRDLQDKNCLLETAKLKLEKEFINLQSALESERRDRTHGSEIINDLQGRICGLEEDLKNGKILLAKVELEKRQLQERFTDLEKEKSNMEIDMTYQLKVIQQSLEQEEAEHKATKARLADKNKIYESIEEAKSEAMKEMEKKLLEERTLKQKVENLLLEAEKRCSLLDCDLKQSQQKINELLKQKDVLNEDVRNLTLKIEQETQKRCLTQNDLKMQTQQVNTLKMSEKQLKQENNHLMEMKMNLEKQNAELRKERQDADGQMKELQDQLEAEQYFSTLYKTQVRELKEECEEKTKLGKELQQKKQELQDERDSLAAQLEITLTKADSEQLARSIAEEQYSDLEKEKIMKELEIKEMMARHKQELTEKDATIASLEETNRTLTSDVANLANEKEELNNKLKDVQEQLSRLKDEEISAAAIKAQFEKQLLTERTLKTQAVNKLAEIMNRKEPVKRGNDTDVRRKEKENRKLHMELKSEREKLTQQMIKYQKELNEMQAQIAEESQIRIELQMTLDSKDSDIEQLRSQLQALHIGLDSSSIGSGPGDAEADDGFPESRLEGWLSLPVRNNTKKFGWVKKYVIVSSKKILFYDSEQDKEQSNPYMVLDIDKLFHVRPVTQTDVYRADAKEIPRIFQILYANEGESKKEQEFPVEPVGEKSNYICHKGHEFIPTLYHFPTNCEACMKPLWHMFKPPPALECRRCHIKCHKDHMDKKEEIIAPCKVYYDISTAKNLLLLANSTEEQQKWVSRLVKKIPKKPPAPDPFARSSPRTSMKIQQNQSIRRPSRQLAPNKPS
row,SMILES,IC50 [µM]
1,CC(=O)c1cccc(C(=O)NCc2nc(-c3c[nH]c4ncccc34)n[nH]2)c1,> 5
2,COc1cccc(C(=O)NCc2nc(-c3ccncc3)n[nH]2)c1,> 5
3,CC(C)(C)OC(=O)N1CCCC1C(=O)NCc1nc(-c2ccncc2)n[nH]1 (stereo not drawn),> 5
4,O=C(CCc1ccccc1Br)NCc1nc(-c2c[nH]c3ncccc23)n[nH]1,> 5
5,O=C(NCc1nc(-c2ccncc2)n[nH]1)c1cc(Cl)c(O)c(Cl)c1,> 5
6,O=C(NCc1nc(-c2ccncc2)n[nH]1)c1cc(O)c(O)c(O)c1,> 5
7,COc1ccc(C(=O)NCc2nc(-c3ccncc3)n[nH]2)cc1C,> 5
8,CC(C)C(C(=O)NCc1nc(-c2c[nH]c3ncccc23)n[nH]1)N(C)C(=O)OC(C)(C)C (stereo not drawn),> 5
9,O=C(Cc1ccc2c(c1)OCO2)NCc1nc(-c2c[nH]c3ncccc23)n[nH]1,> 5
10,O=C(NCc1nc(-c2ccncc2)n[nH]1)c1ccncc1-c1ccccc1,> 5
11,O=C(NCc1nc(-c2c[nH]c3ncccc23)n[nH]1)c1ccc(F)c([N+](=O)[O-])c1,> 5
12,Cc1ccc(F)cc1C(=O)NCc1nc(-c2c[nH]c3ncccc23)n[nH]1,> 5
13,O=C(NCc1nc(-c2c[nH]c3ncccc23)n[nH]1)c1ccc(F)c(F)c1,> 5
14,O=C(NCc1nc(-c2c[nH]c3ncccc23)n[nH]1)c1csc2ccccc12,> 5
15,COc1ccc(C(=O)NCc2nc(-c3c[nH]c4ncccc34)n[nH]2)c(OC)c1,> 5
16,Cc1ccc(O)c(C(=O)NCc2nc(-c3c[nH]c4ncccc34)n[nH]2)c1,> 5
17,CC(=O)NC(Cc1ccc(O)cc1)C(=O)NCc1nc(-c2c[nH]c3ncccc23)n[nH]1 (stereo not drawn),> 5
18,COc1cc(OC)c(C(=O)NCc2nc(-c3ccncc3)n[nH]2)c(OC)c1,> 5
19,O=C(NCc1nc(-c2ccncc2)n[nH]1)c1c(F)cccc1Cl,> 5

row,SMILES,IC50 [µM]
1,O=C(C=Cc1ccc(Cl)cc1)NCc1nc(-c2c[nH]c3ncccc23)n[nH]1,> 5
2,Cc1cccc(C(=O)NCc2nc(-c3c[nH]c4ncccc34)n[nH]2)c1,> 5
3,O=C(NCc1nc(-c2ccncc2)no1)c1cccs1,> 5
4,Cc1cc(C(=O)NCc2nc(-c3c[nH]c4ncccc34)n[nH]2)ccc1Br,> 5
5,O=C(NCc1nc(-c2c[nH]c3ncccc23)n[nH]1)c1cc(F)c(F)c(O)c1F,> 5
6,COc1ccc(O)c(C(=O)NCc2nc(-c3c[nH]c4ncccc34)n[nH]2)c1,> 5
7,O=C(NCc1nc(-c2ccncc2)n[nH]1)c1ccc(I)cc1,> 5
8,c1ccc2c(NCc3nc(-c4ccncc4)n[nH]3)ncnc2c1,> 5
9,O=C(NCc1nc(-c2ccncc2)n[nH]1)c1cc([N+](=O)[O-])ccc1F,> 5
10,O=C(NCc1nc(-c2ccncc2)n[nH]1)c1c2ccccc2cc2ccccc12,> 5
11,CC(C)C(NC(=O)OC(C)(C)C)C(=O)NCc1nc(-c2ccncc2)n[nH]1 (stereo not drawn),> 5
12,O=C(NCc1nc(-c2ccncc2)n[nH]1)C1CCc2ccccc21 (stereo not drawn),> 5
13,O=C(NCc1nc(-c2c[nH]c3ncccc23)n[nH]1)c1cc(Br)ccc1Cl,> 5
14,CCc1ccc(C(=O)NCc2nc(-c3c[nH]c4ncccc34)n[nH]2)cc1,> 5
15,CCCOc1ccc(C(=O)NCc2nc(-c3ccncc3)n[nH]2)cc1,> 5
16,O=C(NCc1nc(-c2ccncc2)n[nH]1)c1ccc(OCc2ccccc2)cc1,> 5
17,Cc1ccc(C(=O)NCc2nc(-c3c[nH]c4ncccc34)n[nH]2)cc1F,> 5
18,Cc1ccc(C)c(C(=O)NCc2nc(-c3ccncc3)n[nH]2)c1,> 5
19,O=C(NCc1nc(-c2ccncc2)n[nH]1)c1ccccc1,> 5

row,SMILES,IC50 [µM]
1,O=C(NCc1nc(-c2ccncc2)n[nH]1)c1cccc(Oc2ccccc2)c1,> 5
2,O=C(NCc1nc(-c2ccncc2)n[nH]1)C(O)CCl (stereo not drawn),> 5
3,CCOc1ccc2ccccc2c1C(=O)NCc1nc(-c2c[nH]c3ncccc23)n[nH]1,> 5
4,O=C(NCc1nc(-c2c[nH]c3ncccc23)n[nH]1)C1=CCCC1,> 5
5,O=C(NCc1nc(-c2c[nH]c3ncccc23)n[nH]1)c1ccc(Cl)cc1[N+](=O)[O-],> 5
6,O=C(CCc1nc2ccccc2[nH]1)NCc1nc(-c2c[nH]c3ncccc23)n[nH]1,> 5
7,CC(=O)c1cccc(C(=O)NCc2nc(-c3ccncc3)n[nH]2)c1,> 5
8,Cc1cccc(C(=O)NCc2c[nH]c(-c3ccncc3)n2)c1O,> 5
9,O=C(NCc1nc(-c2ccncc2)n[nH]1)c1cc(F)ccc1[N+](=O)[O-],> 5
10,O=C(NCc1nc(-c2c[nH]c3ncccc23)n[nH]1)C(F)(F)F,> 5
11,c1ccc2c(NCc3nc(-c4ccncc4)n[nH]3)n[nH]c2c1,> 5
12,O=C(NCc1nc(-c2c[nH]c3ncccc23)n[nH]1)c1cc(O)ccc1O,> 5
13,O=C(NCc1nc(-c2c[nH]c3ncccc23)n[nH]1)c1ccc(Oc2ccccc2)cc1,> 5
14,O=C(NCc1nc(-c2c[nH]c3ncccc23)n[nH]1)c1cccc(Cl)c1Cl,> 5
15,O=C(NCc1nc(-c2ccncc2)n[nH]1)c1cncc(Br)c1,> 5
16,COC1=CC(OC)(C(=O)NCc2nc(-c3ccncc3)n[nH]2)C=C1 (stereo not drawn),> 5
17,O=C(NCc1nc(-c2c[nH]c3ncccc23)n[nH]1)c1ncc[nH]1,> 5
18,CC(=O)c1ccccc1C(=O)NCc1nc(-c2c[nH]c3ncccc23)n[nH]1,> 5

# Other lines, results leading:
row,IC50 [µM],SMILES
1,> 5,CC(C)C(C(=O)NCc1nc(-c2ccncc2)n[nH]1)N(C)C(=O)OC(C)(C)C (stereo not drawn)
2,> 5,O=C(NCc1nc(-c2c[nH]c3ncccc23)n[nH]1)c1cnc[nH]1
3,> 5,Cc1cccc([N+](=O)[O-])c1C(=O)NCc1nc(-c2ccncc2)n[nH]1
4,> 5,O=C(NCc1nc(-c2c[nH]c3ncccc23)n[nH]1)C(O)CCl (stereo not drawn)
5,> 5,CC(C)(C)OC(=O)N1CCNC(C(=O)NCc2nc(-c3c[nH]c4ncccc34)n[nH]2)C1 (stereo not drawn)
6,> 5,O=C(NCc1nc(-c2ccncc2)n[nH]1)c1cc(Cl)ccc1Cl
7,> 5,c1ccc(COc2ccc(CNCc3nc(-c4ccncc4)n[nH]3)cc2)cc1
8,> 5,CCCCCCCC(=O)NCc1nc(-c2c[nH]c3ncccc23)n[nH]1
9,> 5,CC(C)c1cc(C(=O)NCc2nc(-c3ccncc3)n[nH]2)c(O)c(C(C)C)c1
10,> 5,COc1cc(C=CC(=O)NCc2nc(-c3ccncc3)n[nH]2)ccc1O
11,> 5,Cc1cc(C)cc(C(=O)NCc2nc(-c3ccncc3)n[nH]2)c1
12,> 5,CC(C)c1ccc(C(=O)NCc2nc(-c3c[nH]c4ncccc34)n[nH]2)cc1
13,> 5,CC(C)(C)OC(=O)N1Cc2ccccc2CC1C(=O)NCc1nc(-c2c[nH]c3ncccc23)n[nH]1 (stereo not drawn)
14,> 5,N#Cc1ccc(C(=O)NCc2nc(-c3ccncc3)n[nH]2)cc1
15,> 5,O=C(NCc1nc(-c2c[nH]c3ncccc23)n[nH]1)c1ccc(Br)cc1
16,≤ 5,O=C(NCc1nnc(-c2ccnc3[nH]ccc23)o1)c1ccc(O)cc1O
17,> 5,CC(C)Cc1ccc(C(C)C(=O)NCc2nc(-c3c[nH]c4ncccc34)n[nH]2)cc1 (stereo not drawn)
18,> 5,O=C(NCc1nc(-c2c[nH]c3ncccc23)n[nH]1)c1ccc(I)cc1
19,≤ 5,COc1cccc(O)c1C(=O)NCc1nc(-c2ccncc2)n[nH]1
20,> 5,O=C(NCc1nc(-c2c[nH]c3ncccc23)n[nH]1)c1ccccc1-c1ccccc1
21,≤ 5,CC(=O)Oc1ccc(C(=O)NCc2nc(-c3c[nH]c4ncccc34)n[nH]2)cc1
22,> 5,O=C(NCc1c[nH]c(-c2ccncc2)n1)c1cccs1
23,> 5,Cc1c(C(=O)NCc2nc(-c3ccncc3)n[nH]2)oc2ccccc12
24,> 5,Cc1c(C(=O)NCc2nc(-c3ccncc3)n[nH]2)cccc1[N+](=O)[O-]
25,> 5,O=C(NCc1nc(-c2ccncc2)n[nH]1)c1cc(Cl)ccc1O
26,≤ 5,CC(C)(C)OC(=O)NCC[C@H](NC(=O)c1ccc(O)cc1O)c1nc(-c2ccncc2)n[nH]1

row,IC50 [µM],SMILES
1,> 5,O=C(NCc1nc(-c2c[nH]c3ncccc23)n[nH]1)C1CCCO1 (stereo not drawn)
2,> 5,CC(C)(C)OC(=O)N1CC(O)CC1C(=O)NCc1nc(-c2c[nH]c3ncccc23)n[nH]1 (stereo not drawn)
3,> 5,O=C(NCc1nc(-c2ccncc2)n[nH]1)c1c(F)cccc1F
4,> 5,O=C(NCc1nc(-c2c[nH]c3ncccc23)n[nH]1)c1ccccc1C(=O)c1ccc(O)cc1
5,> 5,CC(C(=O)NCc1nc(-c2ccncc2)n[nH]1)c1ccc(O)cc1 (stereo not drawn)
6,> 5,O=C(NCc1nc(-c2ccncc2)n[nH]1)c1ccccc1Cl
7,≤ 5,O=C(NCc1nc(-c2ccncc2)n[nH]1)c1ccc2ccccc2c1O
8,> 5,COc1cccc(C(=O)NCc2nc(-c3c[nH]c4ncccc34)n[nH]2)c1OC
9,> 5,O=C(Cc1ccc2c(c1)OCO2)NCc1nc(-c2ccncc2)n[nH]1
10,> 5,CS(=O)(=O)Nc1ccccc1C(=O)NCc1nc(-c2ccncc2)n[nH]1
11,> 5,CC(C)Oc1ccc(C(=O)NCc2nc(-c3ccncc3)n[nH]2)cc1
12,> 5,O=C(NCc1nc(-c2c[nH]c3ncccc23)n[nH]1)c1cc([N+](=O)[O-])ccc1F
13,> 5,O=C(NCc1nc(-c2c[nH]c3ncccc23)n[nH]1)C1CCc2ccccc2C1 (stereo not drawn)
14,> 5,CC(C)(C)OC(=O)NC1CCN(C(=O)Cc2nc(-c3ccncc3)n[nH]2)C1 (stereo not drawn)
15,> 5,O=C(NCc1nc(-c2c[nH]c3ncccc23)n[nH]1)c1cc(F)cc(F)c1
16,> 5,O=C(NCc1nc(-c2ccncc2)n[nH]1)c1cc(F)c(F)c(O)c1F
17,≤ 5,CC(C)c1cccc(C(=O)NCc2nc(-c3ccncc3)n[nH]2)c1O
18,≤ 5,CCc1cccc(C(=O)NCc2nc(-c3ccncc3)n[nH]2)c1O
19,≤ 5,Cc1ccsc1C(=O)NCc1nc(-c2ccncc2)n[nH]1
20,≤ 5,Cc1ccc(C(=O)NCc2nc(-c3ccncc3)n[nH]2)c(O)c1
21,≤ 5,COc1ccc(O)c(C(=O)NCc2nc(-c3ccncc3)n[nH]2)c1
22,≤ 5,O=C(NCc1nc(-c2ccncc2)n[nH]1)c1nccs1
23,≤ 5,O=C(NCc1nc(-c2ccncc2)n[nH]1)c1ccc(CO)cc1
24,≤ 5,O=C(NCc1nc(-c2c[nH]c3ncccc23)cs1)c1cccs1
25,≤ 5,O=C(NCc1nc(-c2ccncc2)c[nH]1)c1ccc(O)cc1O
26,≤ 5,O=C(NCc1nc(-c2ccncc2)n[nH]1)c1cccs1
